*1 amine or outer side, *2 acyl side, *3 side chain or, on linkers, in order; H or OH if unused. Where a SMILES comes first, the peptide text is derived from it. Where no end group is shown, it is not given here. Side-chain parts run from the residue outwards. The star is where a group is joined. γGlu = O=C(O)[C@H](CCC(=O)[*:2])N[*:1]; Hydrocinnamoyl = O=C(CCc1ccccc1)*; Palmitoyl = CCCCCCCCCCCCCCCC(=O)*; Hexanoyl = CCCCCC(=O)*; Bz = O=C(c1ccccc1)*
How the values were obtained:
human VPAC2 [1] = target: T1, human VPAC2 (Homo sapiens, UniProt P41587); experiment: DiscoveRx cAMP in vitro potency, human VPAC2; format: cell-based
T1 construct: expressed in transfected cells
T1 sequence (P41587 24-438): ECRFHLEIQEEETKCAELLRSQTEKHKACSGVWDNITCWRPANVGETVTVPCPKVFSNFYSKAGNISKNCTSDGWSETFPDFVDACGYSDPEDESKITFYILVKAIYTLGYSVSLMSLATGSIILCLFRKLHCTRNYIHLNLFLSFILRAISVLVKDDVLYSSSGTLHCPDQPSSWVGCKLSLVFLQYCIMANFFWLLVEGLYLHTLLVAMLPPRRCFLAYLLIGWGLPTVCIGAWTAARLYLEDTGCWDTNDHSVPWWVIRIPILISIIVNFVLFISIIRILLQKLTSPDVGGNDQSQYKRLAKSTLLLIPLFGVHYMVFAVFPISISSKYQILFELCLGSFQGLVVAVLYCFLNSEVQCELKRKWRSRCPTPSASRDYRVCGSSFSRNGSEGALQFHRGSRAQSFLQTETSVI
Method: Also, the cells are washed twice. The cells are incubated in assay buffer plus IBMX for 15 minutes at room temperature. […] The stimuli are present for 30 minutes. Then, the assay buffer is gently removed. […] At day 3, the assay described above for the VPAC2 receptor cell line is performed.

human VPAC2 [2] = target: T1, human VPAC2; experiment: Filter binding assay, human VPAC2 membranes, 125I-labeled VIP tracer
Method: (§1) For this assay, the solutions and equipment include:
(§2) Presoak solution: 0.5% Polyethyleneamine in Aqua dest.
(§3) Buffer for flushing filter plates: 25 mM […] pH 7.4
(§4) Blocking buffer: 25 mM HEPES pH 7.4; 0.2% protease free BSA
(§5) Assay buffer: 25 mM HEPES pH 7.4; 0.5% protease free BSA
(§6) Dilution and assay plate: PS-Microplate, U form
(§7) Filtration Plate Multiscreen FB Opaque Plate; […] Type B Glasfiber filter
(§8) In order to prepare the filter plates, aspirate the presoak solution by vacuum filtration. Flush the plates twice with 200 μL flush buffer. Add 200 μL blocking buffer to the filter plate. The filter plate is then incubated […] for 1 hour at room temperature.
(§9) Fill the assay plate with 25 μL assay buffer, 25 μL membranes (2.5 μg) suspended in assay buffer, 25 μL compound (agonist) in assay buffer, and 25 μL tracer (about 40000 cpm) in assay buffer. Incubate the filled plate for 1 hour with shaking.
(§10) Conduct the transfer from assay plate to filter plate. Aspirate the blocking buffer by vacuum filtration and wash two times with flush buffer. Transfer 90 μL from the assay plate to the filter plate. Aspirate the 90 μL transferred from assay plate and wash three times with 200 μL flush buffer. Remove the plastic support. Dry for 1 hour at 60° C. Add 30 μL Microscint. Perform the count.

human VPAC2 [3] = target: T1, human VPAC2; experiment: Alpha screen cAMP in vitro potency, human VPAC2; format: cell-based
Method: Alpha screen: Cells are washed in the culture flask once with PBS. Then, the cells are rinsed with enzyme free dissociation buffer. The dissociated cells are removed. The cells are then spun down and washed in stimulation buffer. For each data point, 50,000 cells suspended in stimulation buffer are used. To this buffer, Alpha screen acceptor beads are added along with the stimuli. This mixture is incubated for 60 minutes. Lysis buffer and Alpha screen donor beads are added and are incubated for 60 to 120 minutes. The Alpha screen signal (indicative of intracellular cAMP levels) is read in a suitable instrument (e.g. AlphaQuest from Perlin-Elmer). Steps including Alpha screen donor and acceptor beads are performed in reduced light.

human VPAC1 = target: T2, human VPAC1 (Homo sapiens, UniProt P32241); experiment: Filter binding assay, human VPAC1 membranes, 125I-labeled VIP tracer; set-up: expressed in transfected cells
T2 sequence (P32241 31-457): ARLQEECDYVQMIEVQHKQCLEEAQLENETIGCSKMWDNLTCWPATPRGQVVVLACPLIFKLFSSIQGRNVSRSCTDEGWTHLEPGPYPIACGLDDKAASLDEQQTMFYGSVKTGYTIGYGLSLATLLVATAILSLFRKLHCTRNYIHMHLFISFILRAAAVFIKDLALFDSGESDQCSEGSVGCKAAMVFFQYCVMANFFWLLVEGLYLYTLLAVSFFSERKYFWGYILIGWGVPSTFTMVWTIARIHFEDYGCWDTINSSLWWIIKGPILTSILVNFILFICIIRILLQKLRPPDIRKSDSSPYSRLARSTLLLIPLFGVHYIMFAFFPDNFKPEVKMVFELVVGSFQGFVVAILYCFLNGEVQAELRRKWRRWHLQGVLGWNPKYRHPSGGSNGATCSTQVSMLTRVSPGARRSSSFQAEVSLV
Method: as §1, §2, §3, §4, §5, §6, §7, §8, §9, §10

human PAC1 = human PAC1 (Homo sapiens, UniProt P41586); experiment: biochemical
Chain of human PAC1 (P41586 21-468): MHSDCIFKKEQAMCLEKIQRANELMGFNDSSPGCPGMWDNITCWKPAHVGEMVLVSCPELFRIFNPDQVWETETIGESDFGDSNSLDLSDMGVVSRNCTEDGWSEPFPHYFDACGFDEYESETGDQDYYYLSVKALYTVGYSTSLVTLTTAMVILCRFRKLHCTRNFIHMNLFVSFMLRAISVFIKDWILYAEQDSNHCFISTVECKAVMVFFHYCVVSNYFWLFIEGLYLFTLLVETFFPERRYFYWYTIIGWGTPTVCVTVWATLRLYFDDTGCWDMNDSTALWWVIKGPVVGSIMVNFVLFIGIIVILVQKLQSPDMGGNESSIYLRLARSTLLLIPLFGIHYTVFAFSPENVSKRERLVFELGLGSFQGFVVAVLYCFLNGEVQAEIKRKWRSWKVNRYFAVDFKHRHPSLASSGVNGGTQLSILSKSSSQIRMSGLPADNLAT
Method: as §1, §2, §3, §4, §5, §6, §7, §8, §9, §10

CCCCCCCCCCCCCCCC(=O)N[C@@H](CCC(=O)NCCCC[C@H](NC(=O)[C@@H]1CCCN1C(=O)[C@@H]1CCCN1C(=O)[C@@H]1CCCN1C(=O)[C@H](CO)NC(=O)[C@@H](NC(=O)[C@H](CCCNC(=N)N)NC(=O)[C@H](CO)NC(=O)[C@H](CC(N)=O)NC(=O)[C@H](CCCCN)NC(=O)[C@@H](NC(=O)[C@H](CO)NC(=O)[C@H](CCC(N)=O)NC(=O)[C@H](CC(C)C)NC(=O)[C@H](Cc1ccc(O)cc1)NC(=O)[C@H](CCCCN)NC(=O)[C@H](CCCCN)NC(=O)[C@H](C)NC(=O)[C@H](C)NC(=O)[C@@H](NC(=O)[C@H](CCC(N)=O)NC(=O)[C@H](CCCCN)NC(=O)[C@H](CCCNC(=N)N)NC(=O)[C@H](CC(C)C)NC(=O)[C@H](CCCNC(=N)N)NC(=O)[C@@H](NC(=O)[C@H](Cc1ccc(O)cc1)NC(=O)[C@H](CC(N)=O)NC(=O)[C@H](CC(=O)O)NC(=O)[C@@H](NC(=O)[C@H](Cc1ccccc1)NC(=O)[C@@H](NC(=O)[C@H](C)NC(=O)[C@H](CC(=O)O)NC(=O)[C@H](CO)NC(=O)[C@@H](N)Cc1c[nH]cn1)C(C)C)[C@@H](C)O)[C@@H](C)O)C(C)C)[C@@H](C)CC)[C@@H](C)O)C(N)=O)C(=O)O [Agonist P80] (H-HSDAVFTDNYTRLRKQVAAKKYLQSIKNSRTSPPPK([γGlu-Palmitoyl])-NH2)
EC50 (human VPAC2 [1]): 2.8 nM
IC50 (human VPAC2 [2]): 31.6 nM
EC50 (human VPAC2 [3]): 1.82 nM
IC50 (human VPAC1): 284 nM

CC[C@H](C)[C@H](NC(=O)[C@H](CO)NC(=O)[C@H](CCC(N)=O)NC(=O)[C@H](CC(C)C)NC(=O)[C@H](Cc1ccc(O)cc1)NC(=O)[C@H](CCCCN)NC(=O)[C@H](CCCCN)NC(=O)[C@H](C)NC(=O)[C@H](C)NC(=O)[C@@H](NC(=O)[C@H](CCC(N)=O)NC(=O)[C@H](CCCCN)NC(=O)[C@H](CCCNC(=N)N)NC(=O)[C@H](CC(C)C)NC(=O)[C@H](CCCNC(=N)N)NC(=O)[C@@H](NC(=O)[C@H](Cc1ccc(O)cc1)NC(=O)[C@H](CC(N)=O)NC(=O)[C@H](CC(=O)O)NC(=O)[C@@H](NC(=O)[C@H](Cc1ccccc1)NC(=O)[C@@H](NC(=O)[C@H](C)NC(=O)[C@H](CC(=O)O)NC(=O)[C@H](CO)NC(=O)[C@H](Cc1c[nH]cn1)NC(=O)CCc1ccccc1)C(C)C)[C@@H](C)O)[C@@H](C)O)C(C)C)C(=O)N[C@@H](CCCCN)C(=O)N[C@@H](CC(N)=O)C(=O)N[C@@H](CO)C(=O)N[C@@H](CCCNC(=N)N)C(=O)N[C@H](C(=O)N[C@@H](CO)C(=O)N1CCC[C@H]1C(=O)N1CCC[C@H]1C(=O)N1CCC[C@H]1C(N)=O)[C@@H](C)O [Agonist P90] (Hydrocinnamoyl-HSDAVFTDNYTRLRKQVAAKKYLQSIKNSRTSPPP-NH2)
EC50 (human VPAC2 [1]): 1.7 nM
IC50 (human VPAC2 [2]): 0.82 nM
EC50 (human VPAC2 [3]): 4.01 nM
IC50 (human VPAC1): 65 nM

CC[C@H](C)[C@H](NC(=O)[C@H](CO)NC(=O)[C@H](CCC(N)=O)NC(=O)[C@H](CC(C)C)NC(=O)[C@H](Cc1ccc(O)cc1)NC(=O)[C@H](CCCCN)NC(=O)[C@H](CCCCN)NC(=O)[C@H](C)NC(=O)[C@H](C)NC(=O)[C@@H](NC(=O)[C@H](CCC(N)=O)NC(=O)[C@H](CCCCN)NC(=O)[C@H](CCCNC(=N)N)NC(=O)[C@H](CC(C)C)NC(=O)[C@H](CCCNC(=N)N)NC(=O)[C@@H](NC(=O)[C@H](Cc1ccc(O)cc1)NC(=O)[C@H](CC(N)=O)NC(=O)[C@H](CC(=O)O)NC(=O)[C@@H](NC(=O)[C@H](Cc1ccccc1)NC(=O)[C@@H](NC(=O)[C@H](C)NC(=O)[C@H](CC(=O)O)NC(=O)[C@H](CO)NC(=O)[C@H](Cc1c[nH]cn1)NC(=O)c1ccccc1)C(C)C)[C@@H](C)O)[C@@H](C)O)C(C)C)C(=O)N[C@@H](CCCCN)C(=O)N[C@@H](CC(N)=O)C(=O)N[C@@H](CO)C(=O)N[C@@H](CCCNC(=N)N)C(=O)N[C@H](C(=O)N[C@@H](CO)C(=O)N1CCC[C@H]1C(=O)N1CCC[C@H]1C(=O)N1CCC[C@H]1C(N)=O)[C@@H](C)O [Agonist P91] (Bz-HSDAVFTDNYTRLRKQVAAKKYLQSIKNSRTSPPP-NH2)
EC50 (human VPAC2 [1]): 0.76 nM
IC50 (human VPAC2 [2]): 0.21 nM
EC50 (human VPAC2 [3]): 1.9 nM
IC50 (human VPAC1): 58.2 nM

CCCCCC(=O)N[C@@H](Cc1c[nH]cn1)C(=O)N[C@@H](CO)C(=O)N[C@@H](CC(=O)O)C(=O)N[C@@H](C)C(=O)N[C@H](C(=O)N[C@@H](Cc1ccccc1)C(=O)N[C@H](C(=O)N[C@@H](CC(=O)O)C(=O)N[C@@H](CC(N)=O)C(=O)N[C@@H](Cc1ccc(O)cc1)C(=O)N[C@H](C(=O)N[C@@H](CCCNC(=N)N)C(=O)N[C@@H](CC(C)C)C(=O)N[C@@H](CC(C)C)C(=O)N[C@@H](CC(C)C)C(=O)N[C@@H](CCCCN)C(=O)N[C@H](C(=O)N[C@@H](C)C(=O)N[C@@H](C)C(=O)N[C@@H](CCCCN)C(=O)N[C@@H](CCCCN)C(=O)N[C@@H](Cc1ccc(O)cc1)C(=O)N[C@@H](CC(C)C)C(=O)N[C@@H](CCC(N)=O)C(=O)N[C@@H](CO)C(=O)N[C@H](C(=O)N[C@@H](CCCCN)C(=O)N[C@@H](CC(N)=O)C(=O)N[C@@H](CO)C(=O)N[C@@H](CCCNC(=N)N)C(=O)N[C@H](C(=O)N[C@@H](CO)C(=O)N1CCC[C@H]1C(=O)N1CCC[C@H]1C(=O)N1CCC[C@H]1C(N)=O)[C@@H](C)O)[C@@H](C)CC)C(C)C)[C@@H](C)O)[C@@H](C)O)C(C)C [Agonist P156] (Hexanoyl-HSDAVFTDNYTRLLLKVAAKKYLQSIKNSRTSPPP-NH2)
IC50 (human PAC1): 8290 nM
IC50 (human VPAC2 [2]): 0.42 nM
EC50 (human VPAC2 [3]): 0.29 nM
IC50 (human VPAC1): 93.3 nM

CCCCCC(=O)N[C@@H](Cc1c[nH]cn1)C(=O)N[C@@H](CO)C(=O)N[C@@H](CC(=O)O)C(=O)N[C@@H](C)C(=O)N[C@H](C(=O)N[C@@H](Cc1ccccc1)C(=O)N[C@H](C(=O)N[C@@H](CC(=O)O)C(=O)N[C@@H](CCC(N)=O)C(=O)N[C@@H](Cc1ccc(O)cc1)C(=O)N[C@H](C(=O)N[C@@H](CCCNC(=N)N)C(=O)N[C@@H](CC(C)C)C(=O)N[C@@H](CCCNC(=N)N)C(=O)N[C@@H](CCCCN)C(=O)N[C@@H](CCC(N)=O)C(=O)N[C@H](C(=O)N[C@@H](C)C(=O)N[C@@H](C)C(=O)N[C@@H](CCCCN)C(=O)N[C@@H](CCCCN)C(=O)N[C@@H](Cc1ccc(O)cc1)C(=O)N[C@@H](CC(C)C)C(=O)N[C@@H](CCC(N)=O)C(=O)N[C@@H](CO)C(=O)N[C@H](C(=O)N[C@@H](CCCCN)C(=O)N[C@@H](CCC(N)=O)C(=O)N[C@@H](CO)C(=O)N[C@@H](CCCNC(=N)N)C(=O)N[C@H](C(=O)N[C@@H](CO)C(=O)N1CCC[C@H]1C(=O)N1CCC[C@H]1C(=O)N1CCC[C@H]1C(N)=O)[C@@H](C)O)[C@@H](C)CC)C(C)C)[C@@H](C)O)[C@@H](C)O)C(C)C [Agonist P157] (Hexanoyl-HSDAVFTDQYTRLRKQVAAKKYLQSIKQSRTSPPP-NH2)
IC50 (human PAC1): 222 nM
IC50 (human VPAC2 [2]): 0.14 nM
EC50 (human VPAC2 [3]): 0.06 nM
IC50 (human VPAC1): 30.6 nM

HSDAVFTDNYTRLRKAAAAKKYLQSIKNSRTSPPP-NH2 [Agonist P97]
IC50 (human PAC1): 87.3 nM
IC50 (human VPAC2 [2]): 0.82 nM
EC50 (human VPAC2 [3]): 0.64 nM
IC50 (human VPAC1): 97.5 nM

HSDAVFTDNYTRLRKQAAAKKYLQSIKNSRTSPPP-NH2 [Agonist P96]
IC50 (human PAC1): 151 nM
IC50 (human VPAC2 [2]): 0.58 nM
EC50 (human VPAC2 [3]): 0.9 nM
IC50 (human VPAC1): 89.3 nM
